In patent US20200268720A1, “METHODS OF USE OF A CLASS IIA HDAC INHIBITOR” (GlaxoSmithKline LLC, priority 2016, published 2020):

Tested on: MMTV-PyMT tumor transplants
Assay: Orthotopic transplant of MMTV-PyMT tumor pieces into wild-type FVBN or athymic nude Foxn1nu mice
Type: in vivo, mouse
Conditions: treated for 20 days
Protocol: Two transplant experiments were performed where tumors were extracted from MMTV-PyMT mice and 50-100 mm^3 pieces were inserted into the 4th mammary fat pad of either wild-type FVBN mice or athymic nude Foxn1nu mice. Five days after implant mice were randomly placed into treatment groups and treated as indicated.

## CC(=O)O[C@H]1C(=O)[C@@]2(C)[C@H]([C@H](OC(=O)c3ccccc3)[C@]3(O)C[C@H](OC(=O)[C@H](O)[C@@H](NC(=O)c4ccccc4)c4ccccc4)C(C)=C1C3(C)C)[C@]1(OC(C)=O)CO[C@@H]1C[C@@H]2O [paclitaxel, 5β,20-epoxy-1,2α,4,7β,10β,13α-hexa-hydroxytax-11-en-9-one 4,10-diacetate 2-benzoate 13-ester with (2R,3S)—N-benzoyl-3-phenylisoserine, reference compound]
  transplant growth in T cell deficient athymic nude (Foxn1nu) recipient mice: efficacious
